Key:
UCH-L1 [1] = test: Western blotting of UCH-L1 expression in B16F10 stable cells expressing UCH-L1 specific RNAi (lentivirus); type: cell-based, mouse; settings: Zeocin-selected, in comparison with normal B16F10 cells and cells expressing irrelevant RNAi (SEQ ID No. 3)
Description: The expression level of UCH-L1 in B16F10 mouse melanoma cell line was analyzed by using the Western blotting with anti-UCH-L1 antibody in comparison with that of H157 lung cancer cell line overexpressing UCH-L1. It was determined that UCH-L1 is expressed also in B16F10 cell lines.
B16F10 cells (2.5×10^5 cells, 70˜80% confluency) were seeded on the cell culture dish. After 24 h, these cells were infected with 1 mL of lentivirus (VCA™, Vectorcorea, Inc., Seoul, Korea) expressing irrelevant RNAi or UCH-L1 specific RNAi. 500 μL ( ? ) (virus titer 1[…]10^7 IFU/mL) of lentivirus expressing the sequence specific shRNAi (SEQ ID Nos. 3, 8, 9, and 10) was used for infection of 2.5×10^5 of B16F10 cells.
Polyburene ([…]) was added thereto, then the cell culture dish was shaken slowly up and down. After incubation for 6 h at 37[…] under 5% CO2, the virus soup was changed with the RPMI-1640 supplemented with 10% FBS. B16F10 cells were infected at twice with lentivirus on 24th hour after the first infection. However the incubation time for second infection was 12 h, not 6 h. After 24 h from the second infection, B16F 10 cells were harvested with trypsin and subcultured on the other dish by diluting the cells with RPMI-1640 (1/16 dilution).
After 24 h, cells were maintained with the cell culture media with 5 μg/mL of Zeocin. For about 14 days, the cell culture media was changed with fresh media containing same amount of Zeocin every three days. On 14th day after start of selection with Zeocin, only cells having the resistance to Zeocin were survival and these cells were infected with lentivirus stably expressing UCH-L1 specific RNAi (shRNAi, short hairpin RNA). On 14th day after start of selection with Zeocin, the colony was formed by the cells having the resistance to Zeocin. The colonized cells were selected and re-subcultured with fresh media. From this method, we could prepare UCH-L1 expression reduced stable cell lines. […]

[2] = tested on: B16F10 mouse melanoma cells; test: Experimental pulmonary metastasis: B16F10 stable cells injected into tail vein, black colonies on lung surface counted; type: in vivo, BALB/C nude mouse; settings: 1x10^6 cells single-injected into tail vein, 14th day after injection, vs control B16F10 cells expressing irrelevant RNAi
Description: We tried to elucidate whether UCH-L1 is a key target molecule related to cancer metastasis through the experimental metastasis using animal model. Normal B16F10 mouse melanoma cells are highly invasive and its first target organ in metastatic process is lung. Using lentivirus-based system, we prepared the B16F10 stable cells in which UCH-L1 was knock-downed.
After preparing B16F10 stable cells, we examined whether the metastasis to lung was decreased when the B16F 10 stable cells were injected intravenously into the tail vein.
As stated above, after the UCH-L1 expression knock-downed B 16F 10 stable cells were selected with Zeocin, these cells (1[…]10^6 cells) were single-injected into the tail vein of BALB/C nude mouse. On 14th day after injection, the metastasis to lung was investigated. (For control set, BALB/C mouse were injected with same amount of B16F10 stable cells expressing irrelevant RNAi (control lentiviral vector))

UCH-L1 [3] = test: Preliminary experiments: UCH-L1 expression level with siRNA on mouse-base sequences; type: cell-based
UCH-L1 [4] = test: Preliminary experiments: UCH-L1 expression level with siRNA on human-base sequences; type: cell-based

Substance	expression of UCH-L1 (Western blotting) (UCH-L1 [1])	reduction of metastasis to lung (black spherical colonies on lung surface) [2] [%]	expression level of UCH-L1 (UCH-L1 [3])	expression level of UCH-L1 (UCH-L1 [4])
ma: UCH-L1 specific shRNAi (SEQ ID No. 9), mouse target sequence, expressed by lentivirus (guide AGCTGAAGCCGATGGAGATTA; listed as Mus musculus)	not reduced	–	–	–
mb: UCH-L1 specific shRNAi (SEQ ID No. 10), mouse target sequence, expressed by lentivirus (guide CCTAAAGTTTACTTCATGAAG; listed as Mus musculus)	reduced	62	effectively reduced	–
ha: UCH-L1 specific shRNAi (SEQ ID No. 8), target sequence common to human and mouse, expressed by lentivirus (guide CCCGAGATGCTGAACAAAG; listed as Homo sapiens)	reduced	92	effectively reduced	effectively reduced

Source: patent US20090208508A1, “NOVEL USE OF UBIQUITIN C-TERMINAL HYDROLASE-L1” (SK CORPORATION, priority 2005, published 2009)
